# Where “and” joins values, the source holds several entries; their conditions need not be identical. Equal values may be shown once. Read-outs that look alike come from different tables or passages of the source.
# Key:
# Format in all cases: in vivo
# Euphorbia heterophylla = assay: Greenhouse post-emergence (POST) herbicidal test on EPHHL; settings: Euphorbia heterophylla, post-emergence; for inhibition at 2 g/ha: use rate 2 gai/ha; for inhibition at 4 g/ha: use rate 4 gai/ha; for inhibition at 8 g/ha: use rate 8 gai/ha
# Outline: (§1)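 Greenhouse weeds, raised in pots of humus-containing loamy sand, receive a water-based spray of the actives once 3 to 15 cm tall. Damage is rated visually from 0 (none) to 100 (above-ground parts destroyed) 20 days after treatment.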
# Abutilon theophrasti = assay: Greenhouse pre-emergence (PRE) herbicidal test on ABUTH; settings: Abutilon theophrasti, pre-emergence, PRE; for pest or weed control at 2 g/ha: I-3 solo 2 gai/ha
# Outline: (§2)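 Seeds were sown per species in loamy sand with ~3.0% humus, treated pre-emergence and kept at 10-25° C or 20-35° C depending on species. Damage was scored at 20 days after treatment on a 0-100 scale (100 = no emergence or complete destruction of above-ground parts, 0 = no damage).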
# Lolium multiflorum = assay: Greenhouse pre-emergence (PRE) herbicidal test on LOLMU; settings: Lolium multiflorum, pre-emergence; for pest or weed control at 2 g/ha: I-3 solo 2 gai/ha
# Outline: as §2
# Digitaria sanguinalis = assay: Greenhouse post-emergence (POST) herbicidal test on DIGSA; settings: for pest or weed control at 2 g/ha: I-3 solo 2 gai/ha
# Outline: as §1
# Geranium pusillum = assay: Greenhouse pre-emergence (PRE) herbicidal test on GERPU; settings: Geranium pusillum, pre-emergence, GERPU PRE
# Outline: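 Seeds sown in loamy sand (~3.0% humus); compounds in water applied by fine nozzles directly after sowing, then pots irrigated and hooded until rooting. Plants held at 10-25° C or 20-35° C by species; damage scored 0-100 (100 = no emergence/complete destruction) 20 days after treatment.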
# Alopecurus myosuroides = assay: Greenhouse pre-emergence (PRE) herbicidal test on ALOMY; settings: Alopecurus myosuroides, pre-emergence
# Outline: as §2
# [1] = 480 h, POST, EPHHL, 20 DAT, read-out: solo application % activity
# [2] = 480 h, PRE, use rate 2 gai/ha, 20 DAT, read-out: % activity
compound,measurement,setting,value
COc1c(Cl)cc(F)c(F)c1Nc1nc(N)nc(C(C)(C)F)n1 [Compound I-3],inhibition at 2 g/ha,"Euphorbia heterophylla; 480 h, EPHHL POST, 20 DAT, read-out: % activity",25%
same,pest or weed control at 8 g/ha,"Euphorbia heterophylla; 480 h, POST, 8 gai/ha, 20 DAT",60%
same,inhibition at 2 g/ha,Euphorbia heterophylla; [1],20%
same,inhibition at 4 g/ha,"Euphorbia heterophylla; 480 h, POST, EPHHL, 20 DAT",65%
same,inhibition at 8 g/ha,Euphorbia heterophylla; [1],50%
same,inhibition at 8 g/ha,"Euphorbia heterophylla; EPHHL POST, read-out: % activity",60%
same,inhibition at 4 g/ha,"Euphorbia heterophylla; POST, EPHHL",60%
same,pest or weed control at 2 g/ha,"Abutilon theophrasti; 432 h, ABUTH, 18 DAT",70%
same,pest or weed control at 8 g/ha,"Abutilon theophrasti; 480 h, 8 gai/ha, 20 DAT",70%
same,inhibition at 2 g/ha,"Abutilon theophrasti; 480 h, ABUTH, 2 gai/ha, 20 DAT, read-out: % activity solo application",25%
same,inhibition at 8 g/ha,"Abutilon theophrasti; 480 h, ABUTH, 8 gai/ha, 20 DAT, read-out: % activity solo application",80%
same,pest or weed control at 2 g/ha,"Abutilon theophrasti; 480 h, ABUTH, 20 DAT",10%
same,inhibition at 2 g/ha,"Abutilon theophrasti; 480 h, ABUTH, use rate 2 gai/ha, 20 DAT, read-out: solo application % activity",25%
same,inhibition at 8 g/ha,"Abutilon theophrasti; 480 h, ABUTH, use rate 8 gai/ha, 20 DAT, read-out: % activity",70%
same,inhibition at 8 g/ha,"Abutilon theophrasti; 480 h, ABUTH, use rate 8 gai/ha, 20 DAT, read-out: solo application % activity",85%
same,inhibition at 2 g/ha,"Abutilon theophrasti; 480 h, use rate 2 gai/ha, 20 DAT, read-out: % activity",10%
same,inhibition at 2 g/ha,"Abutilon theophrasti; ABUTH, use rate 2 gai/ha, read-out: % activity",65%
same,inhibition at 4 g/ha,"Abutilon theophrasti; ABUTH, use rate 4 gai/ha",65%
same,inhibition at 2 g/ha,"Lolium multiflorum; 432 h, PRE, LOLMU, 2 gai/ha, 18 DAT, read-out: % activity solo application",10%
same,inhibition at 8 g/ha,"Lolium multiflorum; 432 h, PRE, LOLMU, 8 gai/ha, 18 DAT, read-out: % activity solo application",70%
same,pest or weed control at 2 g/ha,"Lolium multiflorum; 432 h, PRE, LOLMU, 18 DAT, read-out: % activity",10%
same,pest or weed control at 8 g/ha,"Lolium multiflorum; 432 h, PRE, LOLMU, I-3 solo 8 gai/ha, 18 DAT",70%
same,inhibition at 8 g/ha,"Lolium multiflorum; 480 h, LOLMU PRE, 20 DAT, use rate 8 gai/ha, read-out: % activity",90%
same,pest or weed control at 8 g/ha,"Lolium multiflorum; 480 h, PRE, 8 gai/ha, 20 DAT",90%
same,inhibition at 8 g/ha,"Lolium multiflorum; 480 h, PRE, LOLMU, 8 gai/ha, 20 DAT, read-out: % activity solo application",95%
same,pest or weed control at 2 g/ha,"Lolium multiflorum; 480 h, PRE, LOLMU, 20 DAT, read-out: % activity",25%
same,inhibition at 2 g/ha,"Lolium multiflorum; 480 h, PRE, LOLMU, use rate 2 gai/ha, 20 DAT, read-out: solo application % activity",50%
same,inhibition at 4 g/ha,"Lolium multiflorum; 480 h, PRE, LOLMU, use rate 4 gai/ha, 20 DAT",80%
same,inhibition at 2 g/ha,Lolium multiflorum; [2],20%
same,inhibition at 2 g/ha,"Lolium multiflorum; PRE, LOLMU, use rate 2 gai/ha, read-out: % activity",40%
same,% activity,"Digitaria sanguinalis; DIGSA POST, use rate 2 gai/ha",0%
same,% activity,"Digitaria sanguinalis; DIGSA POST, use rate 8 gai/ha",75% and 50%
same,inhibition at 2 g/ha,"Digitaria sanguinalis; Digitaria sanguinalis, post-emergence, 432 h, POST, DIGSA, 2 gai/ha, 18 DAT, read-out: % activity solo application",10%
same,inhibition at 8 g/ha,"Digitaria sanguinalis; Digitaria sanguinalis, post-emergence, 432 h, POST, DIGSA, 8 gai/ha, 18 DAT, read-out: % activity solo application",10%
same,pest or weed control at 2 g/ha,"Digitaria sanguinalis; Digitaria sanguinalis, post-emergence, 432 h, POST, DIGSA, 18 DAT",10%
same,pest or weed control at 8 g/ha,"Digitaria sanguinalis; Digitaria sanguinalis, post-emergence, 432 h, POST, DIGSA, I-3 solo 8 gai/ha, 18 DAT",10%
same,inhibition at 8 g/ha,"Digitaria sanguinalis; Digitaria sanguinalis, post-emergence, 480 h, DIGSA POST, 20 DAT, use rate 8 gai/ha, read-out: % activity",40%
same,pest or weed control at 8 g/ha,"Digitaria sanguinalis; Digitaria sanguinalis, post-emergence, 480 h, POST, 8 gai/ha, 20 DAT",40%
same,inhibition at 8 g/ha,"Digitaria sanguinalis; Digitaria sanguinalis, post-emergence, 480 h, POST, DIGSA, 8 gai/ha, 20 DAT, read-out: % activity solo application",85%
same,pest or weed control at 2 g/ha,"Digitaria sanguinalis; Digitaria sanguinalis, post-emergence, 480 h, POST, DIGSA, 20 DAT",5%
same,inhibition at 8 g/ha,"Digitaria sanguinalis; Digitaria sanguinalis, post-emergence, 480 h, POST, DIGSA, use rate 8 gai/ha, 20 DAT, read-out: solo application % activity",10%
same,solo application % activity,"Digitaria sanguinalis; POST, DIGSA, use rate 2 gai/ha, 20 DAT",0%
same,inhibition at 2 g/ha,Geranium pusillum; use rate 2 gai/ha,0%
same,inhibition at 8 g/ha,Geranium pusillum; use rate 8 gai/ha,15%
same,pest or weed control at 2 g/ha,"Alopecurus myosuroides; 480 h, PRE, 2 gai/ha, 20 DAT, read-out: % activity",10%
same,pest or weed control at 8 g/ha,"Alopecurus myosuroides; 480 h, PRE, 8 gai/ha, 20 DAT",70%
same,inhibition at 2 g/ha,"Alopecurus myosuroides; 480 h, PRE, ALOMY, 2 gai/ha, 20 DAT, read-out: % activity solo application",5%
same,inhibition at 8 g/ha,"Alopecurus myosuroides; 480 h, PRE, ALOMY, 8 gai/ha, 20 DAT, read-out: % activity solo application",90%
same,inhibition at 8 g/ha,"Alopecurus myosuroides; 480 h, PRE, ALOMY, use rate 8 gai/ha, 20 DAT, read-out: solo application % activity",90%
same,inhibition at 2 g/ha,Alopecurus myosuroides; [2],65%
same,inhibition at 2 g/ha,"Alopecurus myosuroides; ALOMY PRE, use rate 2 gai/ha, read-out: % activity",25%
